Assay results reported in patent publication US9901592B2 (priority 2008, dated 2018).
Values after ≈ are worked out from the molar mass of the structure shown. Values joined by “and” are separate entries in the source; they are usually repeats but may differ in a detail not shown here. Equal values may be shown once. Read-outs that look alike come from different tables or passages of the source.

Key:
S. pneumoniae [1] = experiment: mouse systemic infection model (PD50); type: in vivo
M. fermentans = type: cell-based; conditions: M. fermentans (15 isolates)
S. pneumoniae [2] = experiment: microbe, parasite or virus in culture; type: cell-based
S. pyogenes [3] = type: cell-based
M. genitalium = type: cell-based; conditions: M. genitalium (5 isolates)
S. pyogenes ATCC 8668 = experiment: mouse subcutaneous abscess model; type: in vivo; conditions: 48 hr. post infection
Procedure: Example. Mouse Subcutaneous Abscess. Bacteria were prepared from an overnight plate culture by re-suspending in saline and adjusting the suspension to a 0.1 OD at 625 nm of a 1:10 dilution. The adjusted bacterial suspension was mixed 1:2 with cyclodextran beads prepared as per package instructions. The right flanks of the mice were shaven and injected subcutaneously with 0.2 ml of the bacterial inoculum. Two hours post infection mice were treated via oral gavage with either test article or control drug. 48 hours post infection, mice were euthanized, abscesses aseptically removed, homogenized, serially diluted and plated on bacterial growth agar. After overnight incubation, colonies were counted and CFUs/gram of abscess were determined.
Example. Mouse Subcutaneous Abscess˜S. pyogenes ATCC 8668 (Average Log10 CFU/gram of Abscess). Abscess processing 48 hours post infection.

S. pyogenes [4] = experiment: microbe, parasite or virus in culture; type: cell-based; conditions: for MIC: Streptococcus pyogenes
S. pneumoniae [5] = experiment: neutropenic mouse thigh infection; type: in vivo; conditions: PO
Procedure: Example. Neutropenic Mouse Thigh Infection. Mice were rendered neutropenic with IP injections of cyclophosamide at day −4 and day −1 of 150 mg/Kg and 100 mg/Kg, respectively. On day 0 mice were infected with approximately 5×10^5 CFU/ml of bacteria in a 0.1 ml volume into the right thigh. At 1.5 hours post infection mice received treatment via oral gavage. One group of infected mice were euthanized and thigh processed for bacterial titers to serve as T=0 controls. Twenty-four hours post treatment, the remaining mice were euthanized, thighs aseptically removed, weighed, homogenized, serially diluted and plated on bacterial growth media. CFUs per gram of thigh were calculated after overnight incubation of bacterial plates. The amount of test article required to achieve 1, 2, and 3 loge reductions from 24 hour control thighs were calculated. Additional studies were performed that fractionated the single treatment dose (Q24) into two (Q12), three (Q8) and four (Q6) equivalent doses to determine the pharmacodynamic nature of this compound. Further analysis includes static dose, EC50, 1 log kill and maximal effect (Emax).

S. pneumoniae [6] = experiment: MIC of the strains of the mouse systemic infection model; type: cell-based; conditions: Streptococcus pneumoniae
S. pyogenes [7] = experiment: mouse systemic infection model (PD50); type: in vivo
S. pneumoniae [8] = experiment: neutropenic mouse thigh infection; type: in vivo; conditions: QD, PO
U. urealyticum = experiment: MIC testing in 10B broth (colour change); type: cell-based; conditions: U. urealyticum (10 isolates)
M. hominis = type: cell-based; conditions: M. hominis (13 isolates)
[9] = S. pneumoniae (macrolide susceptible)

CC[C@H]1OC(=O)[C@H](C)C(=O)[C@H](C)[C@@H](O[C@@H]2O[C@H](C)C[C@H](N(C)C)[C@H]2O)[C@](C)(OC)C[C@@H](C)C(=O)[C@H](C)[C@H]2N(CCCCn3cnc(-c4cccnc4)c3)C(=O)O[C@]12C [TEL, telithromycin]
PD50 (S. pneumoniae [1]; [9]): 19.9 mg/kg | PD50 (S. pneumoniae [1]; S. pneumoniae (mefR)): 10.6 mg/kg | PD50 (S. pneumoniae [1]; S. pneumoniae serotype 19A): 5.7 mg/kg | MIC Range (M. fermentans): 0.002 to 0.031 mg/L | MIC50 (M. fermentans; Mycoplasmopsis fermentans): ≤ 0.008 mg/L | MIC90 (M. fermentans; Mycoplasmopsis fermentans): 0.016 mg/L (≈ 0.0197 µM) | MIC 90% (S. pneumoniae [2]): 0.5 mg/L (≈ 0.616 µM) | susceptible (S. pneumoniae [2]): 100.0% | MIC90 (S. pneumoniae [2]; Streptococcus pneumoniae): 1 mg/L (≈ 1.23 µM) | Mutant selection frequencies (S. pyogenes [3]; S. pyogenes, at 2×MIC): <8.3×10^−11-7.7×10^−8 | single step mutation frequency (S. pyogenes [3]; strain 237 Macrolide-R [L4 mutation], 2 × MIC): <2.0 × 10^−10 | single step mutation frequency (S. pyogenes [3]; strain 237 Macrolide-R [L4 mutation], 4 × MIC): <2.0 × 10^−10 | single step mutation frequency (S. pyogenes [3]; strain 237 Macrolide-R [L4 mutation], 8 × MIC): <2.0 × 10^−10 | single step mutation frequency (S. pyogenes [3]; strain 2011 Macrolide-R [mef(A)], 2 × MIC): 3.8 × 10^−8 | single step mutation frequency (S. pyogenes [3]; strain 2011 Macrolide-R [mef(A)], 4 × MIC): <6.3 × 10^−10 | single step mutation frequency (S. pyogenes [3]; strain 2011 Macrolide-R [mef(A)], 8 × MIC): <6.3 × 10^−10 | single step mutation frequency (S. pyogenes [3]; strain 2094 Macrolide-R [erm(A)], 2 × MIC): 7.7 × 10^−8 | single step mutation frequency (S. pyogenes [3]; strain 2094 Macrolide-R [erm(A)], 4 × MIC): <1.5 × 10^−10 | single step mutation frequency (S. pyogenes [3]; strain 2094 Macrolide-R [erm(A)], 8 × MIC): <1.5 × 10^−10 | single step mutation frequency (S. pyogenes [3]; strain 2132 Macrolide-S, 2 × MIC): <8.3 × 10^−11 | single step mutation frequency (S. pyogenes [3]; strain 2132 Macrolide-S, 4 × MIC): <8.3 × 10^−11 | single step mutation frequency (S. pyogenes [3]; strain 2132 Macrolide-S, 8 × MIC): <8.3 × 10^−11 | MIC Range (M. genitalium): ≦0.00003-0.00025 μg/mL | Average Log10 CFU/gram of Abscess (S. pyogenes ATCC 8668; 10 mg/Kg): 7.06 Log10 CFU/gram | Average Log10 CFU/gram of Abscess (S. pyogenes ATCC 8668; 20 mg/Kg): 6.10 Log10 CFU/gram | strains with resistant clones / strains tested (S. pyogenes [4]; S. pyogenes): 2/4 and 2/5 | MIC (S. pyogenes [4]; read-out: Initial MIC, strain 237 Macrolide-R [LA mutation], parent): 0.06 mg/L (≈ 0.0739 µM) | MIC (S. pyogenes [4]; read-out: Initial MIC, strain 2011 Macrolide-R [mef(A)], parent): 0.5 mg/L (≈ 0.616 µM) | MIC (S. pyogenes [4]; read-out: Initial MIC, strain 2094 Macrolide-R [erm(A)], parent): 0.03 mg/L (≈ 0.0369 µM) | MIC (S. pyogenes [4]; read-out: Initial MIC, strain 2132 Macrolide-S, parent): 0.008 mg/L (≈ 0.00985 µM) | MIC (S. pyogenes [4]; read-out: MIC of parents of resistant clones, S. pyogenes): 0.03 to 8 mg/L | MIC (S. pyogenes [4]; read-out: Parental MICs, S. pyogenes, 5 strains with varying resistotypes): 0.03 to 8 mg/L (≈ 0.0369 to 9.85 µM) | MIC (S. pyogenes [4]; read-out: Selected Resistance (MIC), strain 237 Macrolide-R [LA mutation], after serial passages in the drug): 0.125 mg/L (≈ 0.154 µM) | MIC (S. pyogenes [4]; read-out: Selected Resistance (MIC), strain 2011 Macrolide-R [mef(A)], after serial passages in the drug): 1 mg/L (≈ 1.23 µM) | MIC (S. pyogenes [4]; read-out: Selected Resistance (MIC), strain 2094 Macrolide-R [erm(A)], after serial passages in the drug): 0.25 mg/L (≈ 0.308 µM) | MIC (S. pyogenes [4]; read-out: Selected Resistance (MIC), strain 2132 Macrolide-S, after serial passages in the drug): 0.03 mg/L (≈ 0.0369 µM) | MIC (S. pyogenes [4]; read-out: Selected Resistance (MIC), strain 2368 Macrolide-R [erm(B)], after serial passages in the drug): > 64 mg/L | days until resistant clones (MIC increase) (S. pyogenes [4]; daily passages, max. 50): 6 to 22 days | Retest MIC after 10 Antibioticfree Subcultures (S. pyogenes [4]; strain 237 Macrolide-R [LA mutation], clone selected with CEM-101): 1 mg/L | Retest MIC after 10 Antibioticfree Subcultures (S. pyogenes [4]; strain 237 Macrolide-R [LA mutation], clone selected with CLN): 0.06 mg/L | Retest MIC after 10 Antibioticfree Subcultures (S. pyogenes [4]; strain 2011 Macrolide-R [mef(A)], clone selected with AZI): 0.25 mg/L | Retest MIC after 10 Antibioticfree Subcultures (S. pyogenes [4]; strain 2094 Macrolide-R [erm(A)], clone selected with AZI): 0.03 mg/L | Retest MIC after 10 Antibioticfree Subcultures (S. pyogenes [4]; strain 2094 Macrolide-R [erm(A)], clone selected with CEM-101): 0.5 mg/L | Retest MIC after 10 Antibioticfree Subcultures (S. pyogenes [4]; strain 2094 Macrolide-R [erm(A)], clone selected with CLN): 0.03 mg/L | Retest MIC after 10 Antibioticfree Subcultures (S. pyogenes [4]; strain 2094 Macrolide-R [erm(A)], clone selected with CLR): 0.03 mg/L | Retest MIC after 10 Antibioticfree Subcultures (S. pyogenes [4]; strain 2094 Macrolide-R [erm(A)], clone selected with TEL): 0.125 mg/L | Retest MIC after 10 Antibioticfree Subcultures (S. pyogenes [4]; strain 2132 Macrolide-S, clone selected with AZI): 0.03 mg/L | Retest MIC after 10 Antibioticfree Subcultures (S. pyogenes [4]; strain 2368 Macrolide-R [erm(B)], clone selected with CEM-101): >64 mg/L | Retest MIC after 10 Antibioticfree Subcultures (S. pyogenes [4]; strain 2368 Macrolide-R [erm(B)], clone selected with TEL): >64 mg/L | Max. change in log10CFUs from 24 hr. controls (S. pneumoniae [5]; S. pneumoniae 1629): −6.82 log10CFUs | Dose for 2 log10 Reduction from 24 hour controls (S. pneumoniae [5]; S. pneumoniae 1629, QD): 13.2 mg/Kg | Max. change in log10CFUs from 24 hr. controls (S. pneumoniae [5]; S. pneumoniae 6303): −5.27 log10CFUs | MIC (S. pneumoniae [6]; [9]): < 0.06 mg/L | MIC (S. pneumoniae [6]; S. pneumoniae (mefR), read-out: MIC): 0.25 mg/L | MIC (S. pneumoniae [6]; S. pneumoniae serotype 19A, read-out: MIC): 0.5 mg/L | PD50 (S. pyogenes [7]; S. pyogenes (erythromycin R)): 4.4 mg/kg | PD50 (S. pyogenes [7]; S. pyogenes (macrolide susceptible)): 7.8 mg/kg | Dose for 1 log10 Reduction from 24 hour controls (S. pneumoniae [8]; S. pneumoniae 1629): 11.0 mg/Kg | Dose for 3 log10 Reduction from 24 hour controls (S. pneumoniae [8]; S. pneumoniae 1629): 15.5 mg/Kg | Dose for 1 log10 Reduction from 24 hour controls (S. pneumoniae [8]; S. pneumoniae 6303): 4.75 mg/Kg | Dose for 2 log10 Reduction from 24 hour controls (S. pneumoniae [8]; S. pneumoniae 6303): 6.5 mg/Kg | Dose for 3 log10 Reduction from 24 hour controls (S. pneumoniae [8]; S. pneumoniae 6303): 8.75 mg/Kg | MIC Range (U. urealyticum): 0.016 to 0.25 mg/L | MIC50 (U. urealyticum; Ureaplasma urealyticum): 0.063 mg/L (≈ 0.0776 µM) | MIC90 (U. urealyticum; Ureaplasma urealyticum): 0.25 mg/L (≈ 0.308 µM) | MIC Range (M. hominis): 0.125 to 0.5 mg/L | MIC50 (M. hominis; Metamycoplasma hominis, read-out: MIC50): 0.25 mg/L (≈ 0.308 µM) | MIC90 (M. hominis; Metamycoplasma hominis, read-out: MIC90): 0.5 mg/L (≈ 0.616 µM)
